According to the supplement of paper PMC11061612:

Assays:
Experiment in all cases: combination Emax (second highest fraction inhibited in the dose matrix, 72 h); higher = more inhibition; extreme values may be limits of the assay
[1] = test system: TUR (Acute Myeloid Leukemia)
Method in brief: (§1)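 Cell lines in DMEM/F12 or RPMI with 10% FBS were plated in 1536-well plates, held 24 hours at 37°C, 5% CO2, then given two-drug dose matrices for 72 hours (DMSO typically 0.2%). Viability was read by CellTiter-Glo 2.0 luminescence and scaled as inhibition from 0 (vehicle wells) to 1 (blank wells). Combination Emax is the second-highest inhibition in the matrix; Bliss excess is observed combination effect minus expected EA + EB − EA·EB, EA and EB being single-agent effects.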

[2] = test system: SAT (Head and Neck Carcinoma)
Method in brief: as §1

[3] = test system: P30-OHK (B-Lymphoblastic Leukemia)
Method in brief: as §1

[4] = test system: CPC-N (Small Cell Lung Carcinoma)
Method in brief: as §1

[5] = test system: DBTRG-05MG (Glioblastoma)
Method in brief: as §1

[6] = test system: OAW-28 (Ovarian Carcinoma)
Method in brief: as §1

NCI-H226 (Mesothelioma) = test system: NCI-H226 (Mesothelioma)
Method in brief: as §1

[7] = test system: T84 (Colorectal Carcinoma)
Method in brief: as §1

[8] = test system: NCI-H1963 (Small Cell Lung Carcinoma)
Method in brief: as §1

SK-N-SH (Neuroblastoma) = test system: SK-N-SH (Neuroblastoma)
Method in brief: as §1

[9] = test system: SCC-4 (Oral Cavity Carcinoma)
Method in brief: as §1

[10] = test system: C-33-A (Cervical Carcinoma)
Method in brief: as §1

[11] = test system: NAMALWA (Burkitt's Lymphoma)
Method in brief: as §1

[12] = test system: MS-1 (Small Cell Lung Carcinoma)
Method in brief: as §1

[13] = test system: Raji (Burkitt's Lymphoma)
Method in brief: as §1

[14] = test system: PA-TU-8988T (Pancreatic Carcinoma)
Method in brief: as §1

[15] = test system: KP-4 (Pancreatic Carcinoma)
Method in brief: as §1

WM35 (Melanoma) = test system: WM35 (Melanoma)
Method in brief: as §1

[16] = test system: NMC-G1 (Low Grade Glioma)
Method in brief: as §1

[17] = test system: ZR-75-30 (Breast Carcinoma)
Method in brief: as §1

Structure (SMILES) | combination Emax [1] | combination Emax [2] | combination Emax [3] | combination Emax [4] | combination Emax [5] | combination Emax [6] | combination Emax (NCI-H226 (Mesothelioma)) | combination Emax [7] | combination Emax [8] | combination Emax (SK-N-SH (Neuroblastoma)) | combination Emax [9] | combination Emax [10] | combination Emax [11] | combination Emax [12] | combination Emax [13] | combination Emax [14] | combination Emax [15] | combination Emax (WM35 (Melanoma)) | combination Emax [16] | combination Emax [17]
CN(C)CCCOc1ccc(-c2ccc3ncc4c(c3c2)n(C2CCOCC2)c(=O)n4C)cn1 [AZD0156] + C=CCn1c(=O)c2cnc(Nc3ccc(N4CCN(C)CC4)cc3)nc2n1-c1cccc(C(C)(C)O)n1 [AZD1775] (first compound max 1 µM, partner max 1 µM) | 0.772 | 0.427 | 0.678 | 0.972 | 0.175 | 0.27 | 0.196 | 0.556 | 0.87 | 0.799 | 0.526 | 0.894 | 0.974 | 0.877 | 0.695 | 0.718 | 0.571 | 0.348 | 0.264 | 0.156
CN(C)CCCOc1ccc(-c2ccc3ncc4c(c3c2)n(C2CCOCC2)c(=O)n4C)cn1 [AZD0156] + CCN(CCO)CCCOc1ccc2c(Nc3cc(CC(=O)Nc4cccc(F)c4)[nH]n3)ncnc2c1 [AZD2811] (first compound max 1 µM, 7x7, partner max 1 µM) | 0.218 | 0.142 | 0.834 | 0.794 | 0.154 | 0.175 | 0.0682 | 0.023 | 0.857 | 0.479 | 0.336 | 0.0887 | 0.402 | 0.224 | 0.165 | 0.219 | 0.327 | 0.119 | 0.126 | 0.135
CN(C)CCCOc1ccc(-c2ccc3ncc4c(c3c2)n(C2CCOCC2)c(=O)n4C)cn1 [AZD0156] + C[C@@H]1COCCN1C2=NC(=NC(=C2)C3(CC3)[S@](=N)(=O)C)C4=C5C=CNC5=NC=C4 [AZD6738] (first compound max 1 µM, 7x7, partner max 10 µM) | 0.923 | 0.361 | 0.877 | 0.952 | 0.251 | 0.39 | 0.0975 | 0.668 | 0.804 | 0.87 | 0.702 | 0.886 | 0.96 | 0.873 | 0.87 | 0.476 | 0.451 | 0.771 | 0.269 | 0.189
C=CCn1c(=O)c2cnc(Nc3ccc(N4CCN(C)CC4)cc3)nc2n1-c1cccc(C(C)(C)O)n1 [AZD1775] + C[C@@H]1COCCN1C2=NC(=NC(=C2)C3(CC3)[S@](=N)(=O)C)C4=C5C=CNC5=NC=C4 [AZD6738] (first compound max 1 µM, partner max 10 µM) | 0.938 | 0.469 | 0.943 | 0.999 | 0.332 | 0.522 | 0.466 | 0.817 | 1 | 0.953 | 0.763 | 0.978 | 0.961 | 0.983 | 0.937 | 0.833 | – | 0.659 | 0.451 | 0.296
C=CCn1c(=O)c2cnc(Nc3ccc(N4CCN(C)CC4)cc3)nc2n1-c1cccc(C(C)(C)O)n1 [AZD1775] + O=C(c1cc(Cc2n[nH]c(=O)c3ccccc23)ccc1F)N1CCN(C(=O)C2CC2)CC1 [Olaparib] (first compound max 1 µM, partner max 10 µM) | 0.663 | 0.449 | 0.748 | 0.93 | 0.248 | 0.251 | 0.342 | 0.745 | 0.845 | 0.882 | 0.496 | 0.914 | 0.96 | 0.924 | 0.74 | 0.8 | 0.721 | 0.303 | 0.431 | 0.213
CCN(CCO)CCCOc1ccc2c(Nc3cc(CC(=O)Nc4cccc(F)c4)[nH]n3)ncnc2c1 [AZD2811] + C=CCn1c(=O)c2cnc(Nc3ccc(N4CCN(C)CC4)cc3)nc2n1-c1cccc(C(C)(C)O)n1 [AZD1775] (first compound max 1 µM, partner max 1 µM) | 0.668 | 0.41 | 0.846 | 0.961 | 0.195 | 0.213 | 0.185 | 0.645 | 0.876 | 0.787 | 0.454 | 0.882 | 0.977 | 0.848 | 0.667 | 0.678 | 0.651 | 0.197 | 0.254 | 0.155
CN(CCO)CC[C@H](CSc1ccccc1)Nc1ccc(S(=O)(=O)NC(=O)c2ccc(N3CCC([C@@H](O)c4ccccc4-c4ccc(Cl)cc4)CC3)cc2)cc1S(=O)(=O)C(F)(F)F [AZD4320] + C1CN(CCC1(C(=O)N[C@@H](CCO)C2=CC=C(C=C2)Cl)N)C3=NC=NC4=C3C=CN4 [Capivasertib] (first compound max 1 µM, 7x7, partner max 3 µM) | 0.559 | 0.418 | 0.992 | 0.945 | 0.619 | 0.899 | 0.227 | 0.136 | 1 | 0.707 | 0.598 | 0.518 | – | 0.52 | 0.177 | 0.22 | 0.101 | 0.215 | 0.507 | 0.307
C[C@@H]1COCCN1c1cc(C2([S@](C)(=N)=O)CC2)nc(-c2ccnc3[nH]ccc23)n1 [AZD6738] + O=C(c1cc(Cc2n[nH]c(=O)c3ccccc23)ccc1F)N1CCN(C(=O)C2CC2)CC1 [Olaparib] (first compound max 10 µM, 7x7, partner max 10 µM) | 0.907 | 0.371 | – | 0.912 | 0.239 | 0.396 | 0.207 | 0.672 | 0.804 | 0.929 | 0.729 | 0.89 | 0.938 | 0.742 | 0.855 | 0.448 | 0.706 | 0.547 | 0.392 | 0.213
CCc1c2c(nc3ccc(O)cc13)-c1cc3c(c(=O)n1C2)COC(=O)[C@]3(O)CC [SN-38] + O=C(c1cc(Cc2n[nH]c(=O)c3ccccc23)ccc1F)N1CCN(C(=O)C2CC2)CC1 [Olaparib] (first compound max 0.3 µM, 7x7, partner max 10 µM) | 0.994 | 0.418 | 0.99 | 0.392 | 0.407 | – | 0.168 | 0.528 | 0.854 | 0.959 | 0.847 | 0.747 | 0.986 | 0.724 | 0.956 | 0.604 | 0.817 | 0.448 | 0.246 | 0.348
Cn1cnc2c(F)c(Nc3ccc(Br)cc3Cl)c(C(=O)NOCCO)cc21 [Selumetinib] + C=CCn1c(=O)c2cnc(Nc3ccc(N4CCN(C)CC4)cc3)nc2n1-c1cccc(C(C)(C)O)n1 [AZD1775] (first compound max 10 µM, partner max 1 µM) | 0.764 | 0.637 | 0.675 | 0.748 | 0.395 | 0.395 | 0.145 | 0.401 | 0.913 | 0.381 | 0.452 | 0.93 | 0.966 | 0.778 | 0.681 | 0.805 | 0.6 | 0.686 | – | 0.134
Cn1cnc2c(F)c(Nc3ccc(Br)cc3Cl)c(C(=O)NOCCO)cc21 [Selumetinib] + CC(C)n1c(=O)n(C)c2cnc3cc(F)c(-c4ccc(OCCCN5CCCCC5)nc4)cc3c21 [AZD1390] (first compound max 10 µM, 7x7, partner max 0.3 µM) | 0.272 | 0.47 | 0.217 | 0.0753 | 0.315 | 0.332 | 0.133 | 0.397 | 0.303 | 0.146 | 0.278 | 0.264 | 0.136 | 0.117 | 0.233 | 0.321 | 0.283 | 0.65 | – | 0.0506
Cn1cnc2c(F)c(Nc3ccc(Br)cc3Cl)c(C(=O)NOCCO)cc21 [Selumetinib] + CCN(CCO)CCCOc1ccc2c(Nc3cc(CC(=O)Nc4cccc(F)c4)[nH]n3)ncnc2c1 [AZD2811] (first compound max 10 µM, 7x7, partner max 1 µM) | 0.349 | 0.604 | 0.835 | 0.717 | 0.282 | 0.408 | 0.216 | 0.312 | 0.902 | 0.289 | 0.415 | 0.324 | 0.336 | 0.179 | 0.0936 | 0.321 | 0.678 | 0.664 | – | 0.111
Cn1cnc2c(F)c(Nc3ccc(Br)cc3Cl)c(C(=O)NOCCO)cc21 [Selumetinib] + C[C@@H]1COCCN1C2=NC(=NC(=C2)C3(CC3)[S@](=N)(=O)C)C4=C5C=CNC5=NC=C4 [AZD6738] (first compound max 10 µM, 7x7, partner max 10 µM) | 0.934 | 0.561 | 0.889 | 0.824 | 0.358 | 0.598 | 0.152 | 0.667 | 0.855 | 0.769 | 0.502 | 0.894 | 0.918 | 0.667 | 0.722 | 0.466 | 0.506 | 0.767 | – | 0.111
